# Measured values reported in US9580430B2, “9H-pyrimido[4,5-B]indoles and related analogs as BET bromodomain inhibitors” (THE REGENTS OF THE UNIVERSITY OF MICHIGAN, priority 2014, dated 2017).
# Tests used:
# MOLM-13 = test: Cell growth inhibition, MOLM-13 leukemia cells (CellTiter-Glo); type: cell-based; details: Homo sapiens, MOLM-13, 96 h; 4 days; read-out: IC50 (nM) MOLM-13 Cell Line (CellTiter-Glo assay)
# Outline: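 Luminescent ATP-based viability (CellTiter-Glo, 10-20 min at room temperature) in compound-treated MOLM-13 cells; the half-maximal inhibitory concentration was calculated from the readout.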
# MDA-MB-436 = test: Cell growth inhibition, MDA-MB-436 breast cancer cells (WST-8); type: cell-based; details: Homo sapiens, MDA-MB-436, 96 h; 4 days; read-out: IC50 (nM) MDA-MB-436 Cell Line (WST assay)
# Outline: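 IC50 was computed from WST-8-based cell counting in MDA-MB-436 cells, with absorbance read at 450 nm.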
# recombinant BRD4 BD2 = target: T1, recombinant BRD4 BD2 (Homo sapiens, UniProt O60885); test: Competitive fluorescence-polarization (FP) binding assay, BRD4 BD2; details: competitive FP assay; protein 6 nM, probe […]; read-out: IC50 (nM) BRD4 BD2; further: probe 1.5 nM
# T1 construct: for recombinant BRD4 BD1 and BRD4 BD2 proteins
# Outline: (§1)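 Buffer: 100 mM potassium phosphate, pH 6.5, 0.01% Triton X-100; compounds added in buffer with 40% ethylene glycol to preformed complex of fluorescent probe with BRD4 BD1 (10 nM final) or BD2 (6 nM final). After 30 min at room temperature, polarization read. IC50 from nonlinear fits of competition curves, with Ki.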
# recombinant BRD4 BD1 = target: T2, recombinant BRD4 BD1 (Homo sapiens, UniProt O60885); test: Competitive fluorescence-polarization (FP) binding assay, BRD4 BD1; details: competitive FP assay; protein 10 nM, probe […]; read-out: IC50 (nM) BRD4 BD1; further: probe 1.5 nM
# T2 construct: for recombinant BRD4 BD1 and BRD4 BD2 proteins
# Outline: as §1
IC50 (MOLM-13),IC50 (MDA-MB-436),IC50 (recombinant BRD4 BD2),IC50 (recombinant BRD4 BD1),Structure (SMILES)
201 nM,319 nM,93.7 nM,59.9 nM,"COc1cc2c(cc1-c1c(C)noc1C)[nH]c1nc(C)nc(Nc3c(C)c(C4CC4)nn3C)c12 [Cpd. No. 147, N-(3-Cyclopropyl-1,4-dimethyl-1H-pyrazol-5-yl)-7-(3,5-dimethylisoxazol-4-yl)-6-methoxy-2-methyl-9H-pyrimido[4,5-b]indol-4-amine]"
3.4 nM,20.4 nM,5 nM,7.9 nM,"COc1cc2c(cc1-c1c(C)noc1C)[nH]c1nc(C)nc(Nc3c4c(nn3C3CC3)CCC4)c12 [Cpd. No. 148, N-(2-Cyclopropyl-2,4,5,6-tetrahydrocyclopenta[c]pyrazol-3-yl)-7-(3,5-dimethylisoxazol-4-yl)-6-methoxy-2-methyl-9H-pyrimido[4,5-b]indol-4-amine]"
7.2 nM,29.8 nM,7.2 nM,9.6 nM,"COc1cc2c(cc1-c1c(C)noc1C)[nH]c1nc(C)nc(Nc3c4c(nn3CCO)CCC4)c12 [Cpd. No. 150, 2-(3-((7-(3,5-Dimethylisoxazol-4-yl)-6-methoxy-2-methyl-9H-pyrimido[4,5-b]indol-4-yl)amino)-5,6-dihydrocyclopenta[c]pyrazol-2(4H)-yl)ethanol]"
504 nM,1420 nM,161 nM,119 nM,"COc1cc2c(cc1-c1c(C)noc1C)[nH]c1nc(C)nc(Nc3cn(C)cn3)c12 [Cpd. No. 166, 7-(3,5-dimethylisoxazol-4-yl)-6-methoxy-2-methyl-N-(1-methyl-1H-imidazol-4-yl)-9H-pyrimido[4,5-b]indol-4-amine]"
63.3 nM,93.9 nM,23 nM,14.3 nM,"CCc1nn(C)c(Nc2nc(C)nc3[nH]c4cc(-c5c(C)noc5C)c(OC)cc4c23)c1C [Cpd. No. 169, 7-(3,5-dimethylisoxazol-4-yl)-N-(3-ethyl-1,4-dimethyl-1H-pyrazol-5-yl)-6-methoxy-2-methyl-9H-pyrimido[4,5-b]indol-4-amine]"
131 nM,222 nM,56.5 nM,44.9 nM,"COc1cc2c(cc1-c1c(C)noc1C)[nH]c1nc(C)nc(Nc3cnn(C)c3C)c12 [Cpd. No. 170, N-(1,5-dimethyl-1H-pyrazol-4-yl)-7-(3,5-dimethylisoxazol-4-yl)-6-methoxy-2-methyl-9H-pyrimido[4,5-b]indol-4-amine]"
453 nM,634 nM,49.5 nM,57.2 nM,"COc1cc2c(cc1-c1c(C)noc1C)[nH]c1nc(C)nc(Nc3ccnn3C)c12 [Cpd. No. 172, 7-(3,5-dimethylisoxazol-4-yl)-6-methoxy-2-methyl-N-(1-methyl-1H-pyrazol-5-yl)-9H-pyrimido[4,5-b]indol-4-amine]"
108 nM,118 nM,117 nM,142 nM,"COc1cc2c(cc1-c1c(C)noc1C)[nH]c1nc(C)nc(Nc3c(C#N)cnn3C)c12 [Cpd. No. 174, 5-((7-(3,5-dimethylisoxazol-4-yl)-6-methoxy-2-methyl-9H-pyrimido[4,5-b]indol-4-yl)amino)-1-methyl-1H-pyrazole-4-carbonitrile]"
52.9 nM,83.3 nM,10.3 nM,13.7 nM,"CCn1ncc(C)c1Nc1nc(C)nc2[nH]c3cc(-c4c(C)noc4C)c(OC)cc3c12 [Cpd. No. 176, 7-(3,5-dimethylisoxazol-4-yl)-N-(1-ethyl-4-methyl-1H-pyrazol-5-yl)-6-methoxy-2-methyl-9H-pyrimido[4,5-b]indol-4-amine]"
34.8 nM,98 nM,23.6 nM,15.6 nM,"CCc1nn(C)cc1Nc1nc(C)nc2[nH]c3cc(-c4c(C)noc4C)c(OC)cc3c12 [Cpd. No. 182, 7-(3,5-dimethylisoxazol-4-yl)-N-(3-ethyl-1-methyl-1H-pyrazol-4-yl)-6-methoxy-2-methyl-9H-pyrimido[4,5-b]indol-4-amine]"
27.1 nM,132 nM,55.1 nM,33.9 nM,"CCn1nc(C)c(C)c1Nc1nc(C)nc2[nH]c3cc(-c4c(C)noc4C)c(OC)cc3c12 [Cpd. No. 186, 7-(3,5-dimethylisoxazol-4-yl)-N-(1-ethyl-3,4-dimethyl-1H-pyrazol-5-yl)-6-methoxy-2-methyl-9H-pyrimido[4,5-b]indol-4-amine]"
38.8 nM,121 nM,10.9 nM,10.5 nM,"COc1cc2c(cc1-c1c(C)noc1C)[nH]c1nc(C)nc(Nc3c(C)c(C)nn3C3CCC3)c12 [Cpd. No. 187, N-(1-cyclobutyl-3,4-dimethyl-1H-pyrazol-5-yl)-7-(3,5-dimethylisoxazol-4-yl)-6-methoxy-2-methyl-9H-pyrimido[4,5-b]indol-4-amine]"
3.2 nM,12.8 nM,3.7 nM,2.1 nM,"COc1cc2c(cc1-c1c(C)noc1C)[nH]c1nc(C)nc(Nc3c(C)c(C)nn3C3CC3)c12 [Cpd. No. 188, N-(1-cyclopropyl-3,4-dimethyl-1H-pyrazol-5-yl)-7-(3,5-dimethylisoxazol-4-yl)-6-methoxy-2-methyl-9H-pyrimido[4,5-b]indol-4-amine]"

# The next lines start with the molecule.
Structure (SMILES),IC50 (MOLM-13),IC50 (MDA-MB-436),IC50 (recombinant BRD4 BD2),IC50 (recombinant BRD4 BD1)
"COc1cc2c(cc1-c1c(C)noc1C)[nH]c1nc(C)nc(Nc3cc(C4CC4)nn3C(C)C)c12 [Cpd. No. 149, N-(3-Cyclopropyl-1-isopropyl-1H-pyrazol-5-yl)-7-(3,5-dimethylisoxazol-4-yl)-6-methoxy-2-methyl-9H-pyrimido[4,5-b]indol-4-amine]",7.2 nM,14.2 nM,5.4 nM,6.8 nM
"COc1cc2c(cc1-c1c(C)noc1C)[nH]c1nc(C)nc(Nc3cc(C4CC4)nn3C3CC3)c12 [Cpd. No. 152, N-(1,3-Dicyclopropyl-1H-pyrazol-5-yl)-7-(3,5-dimethylisoxazol-4-yl)-6-methoxy-2-methyl-9H-pyrimido[4,5-b]indol-4-amine]",19 nM,34 nM,5.6 nM,10.6 nM
"COc1cc2c(cc1-c1c(C)noc1C)[nH]c1nc(C)nc(Nc3cnc(C)n3C)c12 [Cpd. No. 171, N-(1,2-dimethyl-1H-imidazol-5-yl)-7-(3,5-dimethylisoxazol-4-yl)-6-methoxy-2-methyl-9H-pyrimido[4,5-b]indol-4-amine]",609 nM,1530 nM,79.5 nM,153 nM
"CCn1nccc1Nc1nc(C)nc2[nH]c3cc(-c4c(C)noc4C)c(OC)cc3c12 [Cpd. No. 173, 7-(3,5-dimethylisoxazol-4-yl)-N-(1-ethyl-1H-pyrazol-5-yl)-6-methoxy-2-methyl-9H-pyrimido[4,5-b]indol-4-amine]",121 nM,198 nM,25.1 nM,31.7 nM
"COc1cc2c(cc1-c1c(C)noc1C)[nH]c1nc(C)nc(Nc3ccnn3C(C)C)c12 [Cpd. No. 175, 7-(3,5-dimethylisoxazol-4-yl)-N-(1-isopropyl-1H-pyrazol-5-yl)-6-methoxy-2-methyl-9H-pyrimido[4,5-b]indol-4-amine]",40.5 nM,71 nM,6.9 nM,28.7 nM
"COc1cc2c(cc1-c1c(C)noc1C)[nH]c1nc(C)nc(Nc3sc(C)nc3C)c12 [Cpd. No. 177, N-(7-(3,5-dimethylisoxazol-4-yl)-6-methoxy-2-methyl-9H-pyrimido[4,5-b]indol-4-yl)-2,4-dimethylthiazol-5-amine]",78.6 nM,110 nM,13.2 nM,7.9 nM
"COc1cc2c(cc1-c1c(C)noc1C)[nH]c1nc(C)nc(Nc3ccnn3C3CCCC3)c12 [Cpd. No. 178, N-(1-cyclopentyl-1H-pyrazol-5-yl)-7-(3,5-dimethylisoxazol-4-yl)-6-methoxy-2-methyl-9H-pyrimido[4,5-b]indol-4-amine]",22.5 nM,52.9 nM,0.6 nM,9 nM
"COc1cc2c(cc1-c1c(C)noc1C)[nH]c1nc(C)nc(Nc3cn(C)nc3C(F)(F)F)c12 [Cpd. No. 179, 7-(3,5-dimethylisoxazol-4-yl)-6-methoxy-2-methyl-N-(1-methyl-3-(trifluoromethyl)-1H-pyrazol-4-yl)-9H-pyrimido[4,5-b]indol-4-amine]",2080 nM,330 nM,116 nM,166 nM
"COc1cc2c(cc1-c1c(C)noc1C)[nH]c1nc(C)nc(Nc3cn(C)nc3C(C)C)c12 [Cpd. No. 181, 7-(3,5-dimethylisoxazol-4-yl)-N-(3-isopropyl-1-methyl-1H-pyrazol-4-yl)-6-methoxy-2-methyl-9H-pyrimido[4,5-b]indol-4-amine]",22.2 nM,22.9 nM,10.2 nM,4.4 nM
"COc1cc2c(cc1-c1c(C)noc1C)[nH]c1nc(C)nc(Nc3ccnn3C(C)(C)C)c12 [Cpd. No. 183, N-(1-(tert-butyl)-1H-pyrazol-5-yl)-7-(3,5-dimethylisoxazol-4-yl)-6-methoxy-2-methyl-9H-pyrimido[4,5-b]indol-4-amine]",29.7 nM,83.7 nM,6.1 nM,9.6 nM
